According to patent US20090257979A1, “Novel Inhibitors of Hepatitis C Virus Replication” (INTERMUNE, INC., priority 2008, published 2009):

Tests used:
NS5B polymerase protein = biological target: T1, NS5B polymerase protein (Hepatitis C virus genotype 1a, UniProt P27958); test: biochemical; conditions: pre-incubated 37° C. 30 minutes; RdRp reaction 90 minutes at 37° C.; read-out: HCV NS5B inhibition EC50
T1 construct: pre-incubated with the RNA template and NS5B polymerase protein; Replizyme
Procedure: The compounds were tested in the Replizyme HCV heterotemplate radioactive RNA-dependent RNA-polymerase (RdRp) assay. The test compounds were pre-incubated with the RNA template and NS5B polymerase protein at 37° C. for 30 minutes. The RdRp reaction was initiated with the addition of the NTPs to the buffer-NS5B-compound mix, and was allowed to proceed for 90 minutes at 37° C. Control reactions included: no enzyme, 5% DMSO (test compound solvent), no compound/solvent, Cordycepin-TP and HCV-796 (IC50 values used as a reference inhibition). Radioactive products were collected by applying the stopped reaction to DE-81 paper, air dried prior to washing with buffer comprising NaH2PO4 and sodium pyrophosphate to remove unincorporated ^32P-GTP in the NTP mix, and rinsed with dH2O followed by 100% ethanol. The DE-81 paper was air dried, squares cut out and placed in scintillation tubes for counting.

HCV Replicon = HCV Replicon inhibition; format: cell-based; conditions: Hepatitis C virus

T1 sequence (P27958 2421-3011): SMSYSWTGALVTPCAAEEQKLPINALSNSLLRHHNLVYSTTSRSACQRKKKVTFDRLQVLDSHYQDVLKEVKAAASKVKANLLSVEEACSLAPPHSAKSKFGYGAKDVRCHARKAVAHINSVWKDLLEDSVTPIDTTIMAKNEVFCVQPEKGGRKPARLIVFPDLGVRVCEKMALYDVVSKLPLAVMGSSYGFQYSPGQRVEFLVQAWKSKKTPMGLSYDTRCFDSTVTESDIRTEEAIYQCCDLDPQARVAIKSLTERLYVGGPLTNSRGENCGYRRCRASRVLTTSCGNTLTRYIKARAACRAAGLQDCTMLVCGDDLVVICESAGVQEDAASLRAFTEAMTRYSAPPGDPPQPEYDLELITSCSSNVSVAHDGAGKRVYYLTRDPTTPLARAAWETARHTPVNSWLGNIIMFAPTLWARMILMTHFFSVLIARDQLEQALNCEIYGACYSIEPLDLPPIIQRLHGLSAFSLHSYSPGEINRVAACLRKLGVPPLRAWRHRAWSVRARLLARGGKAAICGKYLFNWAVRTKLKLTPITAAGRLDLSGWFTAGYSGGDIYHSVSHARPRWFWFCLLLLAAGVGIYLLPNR

Compound | EC50 (NS5B polymerase protein) [nM] | EC50 (HCV Replicon) [nM]
COc1ccc(Cc2c(=O)c(C3=NS(=O)(=O)c4cc(NS(C)(=O)=O)ccc4N3)c(O)n3ccccc23)cc1 [Compound 245] | 100 to 1000 | < 100
Cc1cccc2c(CCC(C)C)c(=O)c(C3=NS(=O)(=O)c4cc(NS(C)(=O)=O)ccc4N3)c(O)n12 [Compound 249] | 100 to 1000 | < 100
CC(C)CCc1c(=O)c(C2=NS(=O)(=O)c3cc(NS(C)(=O)=O)ccc3N2)c(O)n2cc(F)ccc12 [Compound 250] | < 100 | < 100
Cc1ccc2c(CCC(C)C)c(=O)c(C3=NS(=O)(=O)c4cc(NS(C)(=O)=O)ccc4N3)c(O)n2c1 [Compound 252] | < 100 | < 100
CS(=O)(=O)Nc1ccc2c(c1)S(=O)(=O)N=C(c1c(O)n3ccccc3c(CCC3CC3)c1=O)N2 [Compound 253] | 1000 to 10000 | 100 to 1000
